Results on eight molecules are retold here after ChEMBL document CHEMBL1139077, “Dopamine/serotonin receptor ligands. Part 15: Oxygenation of the benz-indolo-azecine LE 300 leads to novel subnanomolar dopamine D1/D5 antagonists” (Bioorg Med Chem Lett, 2007).

For assay [1], the target named is T1, D(1B) dopamine receptor (Homo sapiens, UniProt P21918). Briefly: Agonist activity at human dopamine D5 receptor assessed as increase in […] calcium concentration by calcium fluorescence assay. It counts as functional.
T1 sequence (P21918 whole entry): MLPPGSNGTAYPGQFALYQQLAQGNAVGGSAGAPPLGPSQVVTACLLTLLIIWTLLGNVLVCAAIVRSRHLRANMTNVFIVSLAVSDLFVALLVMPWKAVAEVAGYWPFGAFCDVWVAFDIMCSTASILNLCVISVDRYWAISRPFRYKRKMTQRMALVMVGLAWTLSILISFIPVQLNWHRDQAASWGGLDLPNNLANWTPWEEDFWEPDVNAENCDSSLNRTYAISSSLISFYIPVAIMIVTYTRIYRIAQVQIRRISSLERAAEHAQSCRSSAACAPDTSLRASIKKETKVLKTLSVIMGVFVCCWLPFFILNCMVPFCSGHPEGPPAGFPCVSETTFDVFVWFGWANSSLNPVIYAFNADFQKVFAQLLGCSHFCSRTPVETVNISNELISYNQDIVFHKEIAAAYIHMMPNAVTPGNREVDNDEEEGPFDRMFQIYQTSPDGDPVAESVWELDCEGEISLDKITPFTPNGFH
For assay [2], the target named is T2, D(1A) dopamine receptor (Homo sapiens, UniProt P21728). Briefly: Agonist activity at human dopamine D1 receptor assessed as increase in […] calcium concentration by calcium fluorescence assay. It counts as functional.
T2 sequence (P21728 whole entry): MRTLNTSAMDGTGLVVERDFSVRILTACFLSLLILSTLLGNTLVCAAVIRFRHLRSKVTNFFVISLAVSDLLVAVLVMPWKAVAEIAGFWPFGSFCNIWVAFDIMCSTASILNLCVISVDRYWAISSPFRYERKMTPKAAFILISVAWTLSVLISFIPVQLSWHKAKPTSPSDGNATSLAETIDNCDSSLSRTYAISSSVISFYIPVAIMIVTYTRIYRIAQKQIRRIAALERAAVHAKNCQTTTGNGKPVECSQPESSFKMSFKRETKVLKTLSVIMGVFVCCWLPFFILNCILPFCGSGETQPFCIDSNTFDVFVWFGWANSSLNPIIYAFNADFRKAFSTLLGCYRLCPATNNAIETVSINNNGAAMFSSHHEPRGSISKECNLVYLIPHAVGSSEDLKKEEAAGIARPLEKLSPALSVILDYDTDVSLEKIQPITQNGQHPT
In another assay the target is D(3) dopamine receptor (Homo sapiens, UniProt P35462). Briefly: Binding affinity to human cloned dopamine D3 receptor expressed in CHO cells. It counts as cell-based.
Chain of D(3) dopamine receptor (P35462 whole entry): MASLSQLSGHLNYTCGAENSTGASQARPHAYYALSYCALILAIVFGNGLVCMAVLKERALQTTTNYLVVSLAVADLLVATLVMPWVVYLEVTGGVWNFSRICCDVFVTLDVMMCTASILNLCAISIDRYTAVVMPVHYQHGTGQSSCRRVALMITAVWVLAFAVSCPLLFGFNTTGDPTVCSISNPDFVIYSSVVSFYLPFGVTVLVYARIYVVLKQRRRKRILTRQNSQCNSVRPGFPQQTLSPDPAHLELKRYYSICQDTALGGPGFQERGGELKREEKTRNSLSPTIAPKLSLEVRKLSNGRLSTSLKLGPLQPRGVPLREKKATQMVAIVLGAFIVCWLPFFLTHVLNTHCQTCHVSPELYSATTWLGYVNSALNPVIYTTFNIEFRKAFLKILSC
Assay [3] has as its target T3, D(2) dopamine receptor (Homo sapiens, UniProt P14416). Briefly: Displacement of [3H]spiperone from human cloned dopamine D2L receptor expressed in CHO cells. It counts as cell-based.
The target in assay [4] is T1, D(1B) dopamine receptor. Briefly: Binding affinity to human cloned dopamine D5 receptor expressed in HEK 293 cells. It counts as cell-based, HEK293.
Assay [5] deals with T2, D(1A) dopamine receptor. Briefly: Displacement of [3H]SCH 23390 from human cloned dopamine D1 receptor expressed in HEK 293 cells. It counts as cell-based, HEK293. On the technique in general: In a radioligand displacement assay an active substance lowers the binding of a labelled ligand.
Assay [6] is described as follows: Binding affinity to human cloned dopamine D4.4 receptor expressed in CHO cells. It counts as cell-based.
The target in assay [7] is T3, D(2) dopamine receptor. Briefly: Activity at human dopamine D2 receptor assessed as quinpirol-induced suppression of calcium signal by calcium fluorescence assay. It counts as functional.
Assay [8] addresses T3, D(2) dopamine receptor. Briefly: Agonist activity at human dopamine D2 receptor assessed as increase in […] calcium concentration by calcium fluorescence assay. It counts as functional.
Assay [9] addresses T1, D(1B) dopamine receptor. Briefly: Activity at human dopamine D5 receptor assessed as SKF 38393-induced suppression of calcium signal by calcium fluorescence assay. It counts as functional.

Calls of active or inactive are those of the source. No cut-off for these calls is given here.

T3 sequence (P14416 whole entry): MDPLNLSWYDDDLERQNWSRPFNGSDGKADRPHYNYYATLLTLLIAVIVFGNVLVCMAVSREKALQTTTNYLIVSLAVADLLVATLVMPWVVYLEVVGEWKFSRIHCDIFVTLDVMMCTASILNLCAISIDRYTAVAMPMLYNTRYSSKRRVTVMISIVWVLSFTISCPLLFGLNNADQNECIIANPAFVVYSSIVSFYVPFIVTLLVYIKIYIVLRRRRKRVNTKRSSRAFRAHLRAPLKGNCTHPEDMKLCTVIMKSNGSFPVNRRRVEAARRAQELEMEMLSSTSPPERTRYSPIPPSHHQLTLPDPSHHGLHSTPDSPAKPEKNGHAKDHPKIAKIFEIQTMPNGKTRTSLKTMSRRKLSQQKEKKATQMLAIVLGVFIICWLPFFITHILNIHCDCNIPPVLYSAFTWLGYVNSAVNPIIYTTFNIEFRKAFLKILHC

Take `CN1CCc2ccccc2Cc2ccc(O)cc2CC1`: the result at D(1B) dopamine receptor [1] and at D(1A) dopamine receptor [2] was inactive.
In general, Ki refers to the equilibrium dissociation constant of an inhibitor or competing ligand from its target. Higher therefore signals a looser hold on the target. As for `COc1ccc2[nH]c3c(c2c1)CCN(C)CCc1ccccc1C3`, the Ki on D(3) dopamine receptor was determined as 0.475 µM; on D(2) dopamine receptor [3], 0.0119 µM; on D(1B) dopamine receptor [4], 0.0036 µM; on D(1A) dopamine receptor [5] it was 0.00082 µM; in assay [6], 0.266 µM.
`CN1CCc2cc(O)ccc2Cc2[nH]c3ccccc3c2CC1`: the Ki on D(3) dopamine receptor is 2.07 µM; on D(2) dopamine receptor [3] it was 0.0747 µM; at D(1B) dopamine receptor [4] it was 0.0054 µM; at D(1A) dopamine receptor [5] it was 0.0037 µM; in assay [6], 1.36 µM.
The matching figures for `CN1CCc2ccccc2Cc2[nH]c3ccc(O)cc3c2CC1`: 0.944 µM, 0.0384 µM, 0.00039 µM, 0.00056 µM and 0.398 µM.
The matching figures for `COc1ccc2c(c1)CCN(C)CCc1c([nH]c3ccccc13)C2`: 1.14 µM, 0.0228 µM, 0.0315 µM, 0.019 µM and 0.0926 µM.
With `CN1CCc2ccccc2Cc2[nH]c3ccccc3c2CC1`, the outcome on D(2) dopamine receptor [7] and on D(1B) dopamine receptor [9] was Active. In addition, the figures for the Ki (at D(3) dopamine receptor; in assay [6]) were 0.0403 µM and 0.109 µM, respectively. For the same molecule, the result on D(1B) dopamine receptor [1], at D(2) dopamine receptor [8] and on D(1A) dopamine receptor [2] was inactive.
As to `COc1ccc2c(c1)c1c(n2C)Cc2ccccc2CCN(C)CC1`, the Ki at D(3) dopamine receptor stood at 0.00378 µM; on D(2) dopamine receptor [3] it was 0.0017 µM; at D(1B) dopamine receptor [4], 0.00023 µM; on D(1A) dopamine receptor [5], 0.002 µM; in assay [6], 0.0215 µM.
Take `COc1ccc2c(c1)CCN(C)CCc1ccccc1C2`: the Ki came to 0.0383 µM on D(1B) dopamine receptor [4] and 0.0434 µM in [6].
